According to patent publication US12011444B2, “N-substituted indole derivatives as PGE2 receptor modulators” (Idorsia Pharmaceuticals Ltd, priority 2015, dated 2024):

How the values were obtained:
PTGER2 (EP2) = PTGER2 (EP2) (Homo sapiens (Human), UniProt P43116); test: hEP2 b-arrestin assay (PathHunter HEK 293 PTGER2 b-arrestin cells); format: cell-based; settings: hEP2 b-arrestin assay (values without asterisk)
Outline: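 Readout is β-galactosidase complementation luminescence, expressed as percent of DMSO control (duplicates). PathHunter HEK293 EP2/β-arrestin 2 cells, grown 24 h, received compound for 15 min at 37 °C before a 120 min challenge with PGE2 at 5 μM final, followed by 1 h detection at room temperature.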

PTRGER4 (EP4) = PTRGER4 (EP4) (Homo sapiens (Human), UniProt P35408); test: hEP4 b-arrestin assay (PathHunter HEK 293 PTGER4 b-arrestin cells); format: cell-based; settings: hEP4 b-arrestin assay (values without asterisk)
Outline: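 Antagonist mode: compound is given 15 min at 37 °C, then 20 nM (final) PGE2 for 120 min, in HEK293 cells stably expressing EP4 fused to ProLink and β-arrestin 2 fused to EA. Recruitment read as β-gal luminescence after 1 h reagent at room temperature, as percent of DMSO control.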

Sequence of PTGER2 (EP2) (P43116 whole entry): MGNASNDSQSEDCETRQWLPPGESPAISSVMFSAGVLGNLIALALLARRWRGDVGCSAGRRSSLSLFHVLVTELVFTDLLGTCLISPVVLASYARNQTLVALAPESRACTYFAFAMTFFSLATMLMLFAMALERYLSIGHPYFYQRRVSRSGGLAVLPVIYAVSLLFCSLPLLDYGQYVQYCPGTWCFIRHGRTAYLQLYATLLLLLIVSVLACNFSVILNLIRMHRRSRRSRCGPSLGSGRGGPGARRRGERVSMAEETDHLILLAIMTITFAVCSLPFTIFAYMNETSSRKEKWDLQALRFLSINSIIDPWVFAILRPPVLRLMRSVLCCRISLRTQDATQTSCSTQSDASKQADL
Sequence of PTRGER4 (EP4) (P35408 whole entry, looked up, the tested form may be a part): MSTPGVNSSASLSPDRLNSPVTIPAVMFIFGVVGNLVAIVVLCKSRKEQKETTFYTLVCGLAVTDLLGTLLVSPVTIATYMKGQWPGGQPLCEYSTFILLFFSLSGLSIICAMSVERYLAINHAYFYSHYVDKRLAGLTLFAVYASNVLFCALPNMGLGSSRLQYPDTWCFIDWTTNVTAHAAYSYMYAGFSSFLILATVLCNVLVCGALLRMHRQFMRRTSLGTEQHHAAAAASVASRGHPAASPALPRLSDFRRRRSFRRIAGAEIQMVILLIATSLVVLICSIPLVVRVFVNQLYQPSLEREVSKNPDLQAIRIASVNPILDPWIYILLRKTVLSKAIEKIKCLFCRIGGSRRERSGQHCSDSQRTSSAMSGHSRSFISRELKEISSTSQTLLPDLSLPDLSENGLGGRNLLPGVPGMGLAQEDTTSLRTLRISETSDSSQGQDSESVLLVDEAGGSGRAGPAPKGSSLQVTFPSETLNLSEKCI

Structure (SMILES)	IC50 (PTGER2 (EP2)) [nM]	IC50 (PTRGER4 (EP4)) [nM]
N#Cc1cc2c(Cl)cc(F)c(F)c2n1CCNc1cc(-c2cc(F)c(C(=O)O)s2)ncn1 [Example 904, 5-{6-[2-(4-Chloro-2-cyano-6,7-difluoro-indol-1-yl)-ethylamin0]-pyrimidin-4-yl}-3-fluoro-thiophene-2-carboxylic acid]	1	49
CCCCOc1cc(-c2cc(NCCn3c(C#N)cc4c(OC)ccc(F)c43)ncn2)cc(F)c1C(=O)O [Example 905, 2-Butoxy-4-{6-[2-(2-cyano-7-fluoro-4-methoxy-indol-1-yl)-ethylamino]-pyrimidin-4-yl}-6-fluoro-benzoic acid]	22	5
CCCCOc1cc(-c2cc(NCCn3c(C#N)cc4c(OC)ccc(F)c43)ncn2)cc(Cl)c1C(=O)O [Example 906, 2-Butoxy-6-chloro-4-{6-[2-(2-cyano-7-fluoro-4-methoxy-indol-1-yl)-ethylamino]-pyrimidin-4-yl}-benzoic acid]	30	3
CCCOc1cc(-c2cc(NCCn3c(C#N)cc4c(OC)ccc(F)c43)ncn2)cc(Cl)c1C(=O)O [Example 907, 2-Chloro-4-{6-[2-(2-cyano-7-fluoro-4-methoxy-indol-1-yl)-ethylamino]-pyrimidin-4-yl}-6-propoxy-benzoic acid]	24	12
CCCOc1cc(-c2cc(NCCn3c(C#N)cc4c(OC)ccc(F)c43)ncn2)cc(F)c1C(=O)O [Example 908, 4-{6-[2-(2-Cyano-7-fluoro-4-methoxy-indol-1-yl)-ethylamino]-pyrimidin-4-yl}-2-fluoro-6-propoxy-benzoic acid]	17	33
CCOc1cc(-c2cc(NCCn3c(C#N)cc4c(Cl)cccc43)ncn2)sc1C(=O)O [Example 909, 5-{6-[2-(4-Chloro-2-cyano-indol-1-yl)-ethylamino]-pyrimidin-4-yl}-3-ethoxy-thiophene-2-carboxylic acid]	3	14
COc1cccc2c1cc(C#N)n2CCNc1cc(-c2cc(C(F)(F)F)c(C(=O)O)s2)ncn1 [Example 910, 5-{6-[2-(2-Cyano-4-methoxy-indol-1-yl)-ethylamino]-pyrimidin-4-yl}-3-trifluoromethyl-thiophene-2-carboxylic acid]	23	10
N#Cc1cc2c(Cl)cccc2n1CCNc1cc(-c2cc(C(F)(F)F)c(C(=O)O)s2)ncn1 [Example 911, 5-{6-[2-(4-Chloro-2-cyano-indol-1-yl)-ethylamino]-pyrimidin-4-yl}-3-trifluoromethyl-thiophene-2-carboxylic acid]	7	27
N#Cc1cc2c(Cl)cc(F)c(F)c2n1CCNc1cc(-c2cc(C(F)(F)F)c(C(=O)O)s2)ncn1 [Example 912, 5-{6-[2-(4-Chloro-2-cyano-6,7-difluoro-indol-1-yl)-ethylamino]pyrimidin-4-yl}-3-trifluoromethyl-thiophene-2-carboxylic acid]	4	29
COc1ccc(F)c2c1cc(C#N)n2CCNc1cc(-c2cc(Cl)c(C(=O)O)c(OCC(C)C)c2)ncn1 [Example 913, 2-Chloro-4-{6-[2-(2-cyano-7-fluoro-4-methoxy-indol-1-yl)-ethylamino]-pyrimidin-4-yl}-6-isobutoxy-benzoic acid]	13	5
CCOc1cc(-c2cc(NCCn3c(C#N)cc4c(Cl)cc(F)c(F)c43)ncn2)ccc1OCC(=O)O [Example 914, (4-{6-[2-(4-Chloro-2-cyano-6,7-difluoro-indol-1-yl)-ethylamino]-pyrimidin-4-yl}-2-ethoxy-phenoxy)-acetic acid]	32	68
CCOc1cc(-c2cc(NCCn3c(C#N)cc4c(Cl)cccc43)ncn2)ccc1NCC(=O)O [Example 915, (4-{6-[2-(4-Chloro-2-cyano-indol-1-yl)-ethylamino]-pyrimidin-4-yl}-2-ethoxy-phenylamino)-acetic acid]	12	27
CCOc1cc(-c2cc(NCCn3c(C#N)cc4c(Cl)cc(F)c(F)c43)ncn2)ccc1NCC(=O)O [Example 916, (4-{6-[2-(4-Chloro-2-cyano-6,7-difluoro-indol-1-yl)-ethylamino]-pyrimidin-4-yl}-2-ethoxy-phenylamino)-acetic acid]	20	18
COc1ccc(F)c2c1cc(C#N)n2CCNc1cc(-c2ccc(C(=O)O)c(OC(F)F)c2)ncn1 [Example 917, 4-{6-[2-(2-Cyano-7-fluoro-4-methoxy-indol-1-yl)-ethylamino]-pyrimidin-4-yl}-2-difluoromethoxy-benzoic acid]	24	35
COc1n[nH]c2cc(-c3cc(NCCn4c(C#N)cc5c(OC)ccc(F)c54)ncn3)ccc12 [Example 918, 7-Fluoro-4-methoxy-1-{2-[6-(3-methoxy-1H-indazol-6-yl)-pyrimidin-4-ylamino]-ethyl}-1H-indole-2-carbonitrile]	26	73
COc1ccc(F)c2c1cc(C#N)n2CCNc1cc(-c2ccc3c(c2)N(C)C(=O)NC3)ncn1 [Example 919, 7-Fluoro-4-methoxy-1-{2-[6-(1-methyl-2-oxo-1,2,3,4-tetrahydro-quinazolin-7-yl)-pyrimidin-4-ylamino]-ethyl}-1H-indole-2-carbonitrile]	10	3
COc1ccc(F)c2c1cc(C#N)n2CCNc1cc(-c2ccc3c(=O)n(C)[nH]c3c2)ncn1 [Example 920, 7-Fluoro-4-methoxy-1-{2-[6-(2-methyl-3-oxo-2,3-dihydro-1H-indazol-6-yl)-pyrimidin-4-ylamino]-ethyl}-1H-indole-2-carbonitrile]	39	68
COc1ccc(F)c2c1cc(C#N)n2CCNc1cc(-c2ccc3c(=O)[nH]n(C)c3c2)ncn1 [Example 921, 7-Fluoro-4-methoxy-1-{2-[6-(1-methyl-3-oxo-2,3-dihydro-1H-indazol-6-yl)-pyrimidin-4-ylamino]-ethyl}-1H-indole-2-carbonitrile]	6	9
CCSc1cc(C(=O)O)cc(-c2cc(NCCn3c(C#N)cc4c(OC)ccc(F)c43)ncn2)c1 [Example 922, 3-{6-[2-(2-Cyano-7-fluoro-4-methoxy-indol-1-yl)-ethylamino]-pyrimidin-4-yl}-5-ethylsulfanyl-benzoic acid]	19	19
COc1ccc(F)c2c1cc(C#N)n2CCNc1cc(-c2ccc(-c3cnn[nH]3)cc2)ncn1 [Example 923, 7-Fluoro-4-methoxy-1-(2-{6-[4-(3H-[1,2,3]triazol-4-yl)-phenyl]-pyrimidin-4-ylamino}-ethyl)-1H-indole-2-carbonitrile]	20	42
CCOc1cc(-c2cc(NCCn3c(C#N)cc4c(OC)ccc(F)c43)ncn2)ccc1CCC(=O)O [Example 924, 3-(4-{6-[2-(2-Cyano-7-fluoro-4-methoxy-indol-1-yl)-ethylamino]-pyrimidin-4-yl}-2-ethoxy-phenyl)-propionic acid]	224	308
CCOc1cc(OCCC(=O)O)cc(-c2cc(NCCn3c(C#N)cc4c(OC)ccc(F)c43)ncn2)c1 [Example 926, 3-(3-{6-[2-(2-Cyano-7-fluoro-4-methoxy-indol-1-yl)-ethylamino]-pyrimidin-4-yl}-5-ethoxy-phenoxy)-propionic acid]	4	20
CCOc1cc(-c2cc(NCCn3c(C#N)cc4c(OC)ccc(F)c43)ncn2)ccc1OCCC(=O)O [Example 927, 3-(4-{6-[2-(2-Cyano-7-fluoro-4-methoxy-indol-1-yl)-ethylamino]-pyrimidin-4-yl}-2-ethoxy-phenoxy)-propionic acid]	31	3
CCOc1c(C(=O)O)ccc(-c2cc(NCCn3c(C#N)cc4c(OC)ccc(F)c43)ncn2)c1F [Example 928, 4-{6-[2-(2-Cyano-7-fluoro-4-methoxy-indol-1-yl)-ethylamino]-pyrimidin-4-yl}-2-ethoxy-3-fluoro-benzoic acid]	37	45
CCOc1cc(-c2cc(NCCn3c(C#N)cc4c(OC)ccc(F)c43)ncn2)ccc1S(N)(=O)=O [Example 929, 4-{6-[2-(2-Cyano-7-fluoro-4-methoxy-indol-1-yl)-ethylamino]-pyrimidin-4-yl}-2-ethoxy-benzenesulfonamide]	20	33
CCOc1cc(-c2cc(NCCn3c(C#N)cc4c(OC)ccc(F)c43)ncn2)ccc1-c1cnn[nH]1 [Example 930, 1-(2-{6-[3-Ethoxy-4-(3H-[1,2,3]triazol-4-yl)-phenyl]-pyrimidin-4-ylamino}-ethyl)-7-fluoro-4-methoxy-1H-indole-2-carbonitrile]	4	2
CCOc1cc(-c2cc(NCCn3c(C#N)cc4c(OC)ccc(F)c43)ncn2)sc1CCC(=O)O [Example 932, 3-(5-{6-[2-(2-Cyano-7-fluoro-4-methoxy-indol-1-yl)-ethylamino]-pyrimidin-4-yl}-3-ethoxy-thiophen-2-yl)-propionic acid]	14	3
COc1ccc(F)c2c1cc(C#N)n2CCNc1cc(-c2ccc(-c3c(O)c(=O)c3=O)cc2)ncn1 [Example 933, 7-Fluoro-1-(2-{6-[4-(2-hydroxy-3,4-dioxo-cyclobut-1-enyl)-phenyl]-pyrimidin-4-ylamino}-ethyl)-4-methoxy-1H-indole-2-carbonitrile]	12	4
CCOc1cc(-c2cc(NCCn3c(C#N)cc4c(OC)ccc(F)c43)ncn2)ccc1C(=O)C(=O)O [Example 934, (4-{6-[2-(2-Cyano-7-fluoro-4-methoxy-indol-1-yl)-ethylamino]-pyrimidin-4-yl}-2-ethoxy-phenyl)-oxo-acetic acid]	16	31
